pIC50: −log10 of the molar value.
Test system: HT29 human colon cancer cells
Test: In vitro cytotoxicity (MTT assay) in HT29 cells with or without NTR
Format: cell-based
Details: HT29, selectivity ratio
Method: (§1) The cytotoxicity of the target compounds 1c–6c were evaluated in MCF-7 human breast cancer cells and HT29 human colon cancer cells. These two cell lines were chosen because 5′-DFUR is currently used to treat breast and gastrointestinal tumors. The cells were incubated with the target compounds at various concentrations for 24 h in the presence or absence of NTR. The cell viability and proliferation behavior were assessed by 3-(4,5-dimethylthiazol-2-yl)-2,5-diphenyltetrazolium (MTT) assay. The half-maximal inhibitory concentration values of the tested compounds for inhibiting cell proliferation are shown in Table 1.
(§2) MCF-7 human breast cancer cells or HT29 human colon cancer cells purchased from the National Collection of Authenticated Cell Cultures were cultured in RPMI 1640 medium, and McCoy’s 5A medium supplemented with 10% fetal bovine serum and 1% penicillin-streptomycin in a humidified 5% CO2 incubator at 37 °C. Cells in the logarithmic growth phase were inoculated into 96-well plates at a density of 1.0 × 10^4 cells per well and cultured for 24 h. The target compounds were dissolved in DMSO and diluted in medium to different concentrations. The cells were then incubated with different concentrations of the target compound for 24 h. The cells in the NTR treatment group were incubated with various concentrations of compounds, NTR (final concentration, 50 µg/mL) and NADH (final concentration, 2 mM) for 24 h. Cell viability and proliferation were measured by MTT assay. Cell viability was calculated according to the following formula: cell viability (%) = (OD value of treatment group–OD value of blank group)/(OD value of control group–OD value of blank group) × 100. The half-maximal inhibitory concentration values were calculated from concentration-response curves using GraphPad PRISM (version 5.0, GraphPad, San Diego, CA, USA).

SMILES | IC50 (NTR-Free)/ IC50 (NTR)
C[C@H]1O[C@@H](n2cc(F)c(=O)n(Cc3ccc([N+](=O)[O-])o3)c2=O)[C@H](O)[C@@H]1O [Compound 2c] | 7.62
C[C@H]1O[C@@H](n2cc(F)c(=O)n(Cc3cccs3)c2=O)[C@H](O)[C@@H]1O [Compound 6c] | 1.02

Same assay, conditions: Homo sapiens, HT-29; HT29, 24 h, medium with NTR and NADH 2 mM, MTT; read-out: IC50 NTR

SMILES | pIC50
C[C@H]1O[C@@H](n2cc(F)c(=O)n(Cc3ccc([N+](=O)[O-])o3)c2=O)[C@H](O)[C@@H]1O [Compound 2c] | 4.24
C[C@H]1O[C@@H](n2cc(F)c(=O)n(Cc3cccs3)c2=O)[C@H](O)[C@@H]1O [Compound 6c] | 3.33

Same assay, conditions: Homo sapiens, HT-29; HT29, 24 h, medium without NTR, MTT; read-out: IC50 NTR-Free

SMILES | pIC50
C[C@H]1O[C@@H](n2cc(F)c(=O)n(Cc3ccc([N+](=O)[O-])o3)c2=O)[C@H](O)[C@@H]1O [Compound 2c] | 3.36
C[C@H]1O[C@@H](n2cc(F)c(=O)n(Cc3cccs3)c2=O)[C@H](O)[C@@H]1O [Compound 6c] | 3.32

Test system: MCF-7 human breast cancer cells
Test: In vitro cytotoxicity (MTT assay) in MCF-7 cells with or without NTR
Format: cell-based
Details: Homo sapiens, MCF7; MCF-7, 24 h, medium with NTR and NADH 2 mM, MTT; read-out: IC50 NTR
Method: as §1, §2

SMILES | pIC50
C[C@H]1O[C@@H](n2cc(F)c(=O)n(Cc3ccc([N+](=O)[O-])o3)c2=O)[C@H](O)[C@@H]1O [Compound 2c] | 4.10
C[C@H]1O[C@@H](n2cc(F)c(=O)n(Cc3cccs3)c2=O)[C@H](O)[C@@H]1O [Compound 6c] | 3.33

Same assay, conditions: Homo sapiens, MCF7; MCF-7, 24 h, medium without NTR, MTT; read-out: IC50 NTR-Free

SMILES | pIC50
C[C@H]1O[C@@H](n2cc(F)c(=O)n(Cc3ccc([N+](=O)[O-])o3)c2=O)[C@H](O)[C@@H]1O [Compound 2c] | 3.40
C[C@H]1O[C@@H](n2cc(F)c(=O)n(Cc3cccs3)c2=O)[C@H](O)[C@@H]1O [Compound 6c] | 3.33

Same assay, conditions: MCF-7, selectivity ratio

SMILES | IC50 (NTR-Free)/ IC50 (NTR)
C[C@H]1O[C@@H](n2cc(F)c(=O)n(Cc3ccc([N+](=O)[O-])o3)c2=O)[C@H](O)[C@@H]1O [Compound 2c] | 4.99
C[C@H]1O[C@@H](n2cc(F)c(=O)n(Cc3cccs3)c2=O)[C@H](O)[C@@H]1O [Compound 6c] | 0.99

Test system: not listed separately
Test: Stability of target compounds in rat plasma, HPLC
Format: in vitro ADME, SD rat
Details: 50 μM, 37 °C
Method: (§3) The stability of the target compounds was tested first, and excellent stability was essential for physiological function evaluation. Phosphate-buffered saline (PBS) of different pH values was used to evaluate the stability of the target compounds in a weakly acidic tumor microenvironment (pH 6.5) versus a weakly alkaline normal physiological environment (pH 7.4). […] The stability of the target compounds in mouse and rat plasma was excellent. The concentrations of all target compounds remained at >80% of the initial concentrations after 24 h, with the concentrations of compounds 1c, 2c, and 3c being 89%, 88%, and 83% in mouse plasma and 86%, 84%, and 81% in rat plasma, respectively (Figure 3c,d).
(§4) PBS (pH 7.4) was made with 137 mM NaCl, 2.7 mM KCl, 10 mM Na2HPO4, and 1.8 mM KH2PO4, while PBS (pH 6.5) was made with 24.6 mM Na2HPO4 and 175.4 mM NaH2PO4. The target compounds were dissolved into the different buffers (50 μM; 1% DMSO), and the mixtures were incubated at 37 °C. A 100-μL sample was transferred to a vial for HPLC analysis at 1, 2, 4, 8, 12, and 24 h. C57BL/6 mice and SD rat orbital whole blood was collected into anticoagulation tubes and centrifuged at 4000× g for 5 min at 4 °C to obtain plasma. The target compounds were dissolved into the plasma (50 μM; 1% DMSO) and incubated at 37 °C. Each sample (100 μL) was collected and precipitated using 100 μL of acetonitrile. The mixture was vortexed for 5 min and centrifuged at 10,000× g for 10 min. The supernatant was transferred to a vial for HPLC analysis after 1, 2, 4, 8, 12, and 24 h.

SMILES | concentration relative to initial concentration after 24 h in rat plasma [%]
C[C@H]1O[C@@H](n2cc(F)c(=O)n(Cc3ccc([N+](=O)[O-])o3)c2=O)[C@H](O)[C@@H]1O [Compound 2c] | 84

Test system: HT29 colon cancer cells
Test: In vivo antitumor activity in HT29 tumor-bearing mice
Details: 50 mg/kg i.p. every 2 days for 4 weeks
Method: Compound 2c, which has excellent stability, a high metabolic rate, and strong cytotoxicity under NTR conditions in vitro, was selected for the in vivo evaluation of antitumor activity in tumor-bearing mice. Tumor-bearing mice were generated by the axillary injection of HT29 colon cancer cells into C57BL/6 mice. When the tumors grew to approximately 100–150 mm^3, the mice were randomly divided into negative control (vehicle), compound 2c (50 mg/kg), and positive control 5′-DFUR (50 mg/kg) groups (n = 6 each). The mice were injected intraperitoneally every 2 days for 4 weeks, and the tumor volume and body weight of the mice were measured every 2 days. No death occurred in any group of mice during the experimental period.
Four-week-old C57BL/6 mice were purchased from Jinan Pengyue Experimental Animal Breeding Co. Ltd. (Jinan, China). The mice were housed in cages under a 12-h light/dark cycle from 7:00 to 19:00 at controlled temperatures (25–26 °C) and relative humidity (50 ± 10%) throughout the experimental period. All animals were allowed to eat and drink freely unless otherwise stated and allowed to acclimate for 1 week before the experiment. All animal experimental protocols were performed in accordance with applicable institutional and governmental regulations concerning the ethical use of animals (AP2024022954).
The tumor-bearing mice model was established by the subcutaneous injection of HT29 cells (1 × 10^7 cells/mL) purchased from the National Collection of Authenticated Cell Cultures to the right axilla of C57BL/6 mice (100 µL/mouse). When the tumor size reached 100–150 mm^3, the mice were evenly divided into negative control (vehicle), group 2c (50 mg/kg), and 5′-DFUR (50 mg/kg) groups (n = 6 each). Compound 2c and 5′-DFUR were dissolved in a solution containing 10% ethanol, 10% castor oil, and 80% saline that also served as the negative control. The mice were injected intraperitoneally every 2 days for 4 weeks, and the tumor volumes and body weights of the mice were measured every 2 days. Tumor volume was calculated using the following formula: tumor volume = length (mm) × width (mm) × width (mm) × 0.5. The TGI rate was determined as follows: TGI = 1 − (treatment final volume − treatment initial volume)/(control final volume − control initial volume) × 100%.

SMILES | drug-related toxic reactions (in words)
C[C@H]1O[C@@H](n2cc(F)c(=O)n(Cc3ccc([N+](=O)[O-])o3)c2=O)[C@H](O)[C@@H]1O [Compound 2c] | No significant drug-related toxic reactions were observed

Same assay, conditions: 50 mg/kg i.p. every 2 days for 4 weeks, versus positive control 5′-DFUR group

SMILES | body weight of mice (in words)
C[C@H]1O[C@@H](n2cc(F)c(=O)n(Cc3ccc([N+](=O)[O-])o3)c2=O)[C@H](O)[C@@H]1O [Compound 2c] | smaller weight fluctuations and were slightly higher than those of the positive control group

Same assay, conditions: 50 mg/kg intraperitoneally every 2 days for 4 weeks, HT29 tumor-bearing C57BL/6 mice

SMILES | tumor growth inhibition (TGI) rate [%]
C[C@H]1O[C@@H](n2cc(F)c(=O)n(Cc3ccc([N+](=O)[O-])o3)c2=O)[C@H](O)[C@@H]1O [Compound 2c] | 77.5

Test system: not listed separately
Test: Stability of target compounds in phosphate-buffered saline (pH 6.5 and pH 7.4), HPLC
Format: physicochemical
Details: PBS pH 6.5 and 7.4, mouse and rat plasma (Figure S1)
Method: as §3, §4

SMILES | stability in PBS at different pH values and plasma (in words)
C[C@H]1O[C@@H](n2cc(F)c(=O)n(Cc3cccs3)c2=O)[C@H](O)[C@@H]1O [Compound 6c] | similarly stable

Test system: not listed separately
Test: Stability of target compounds in mouse plasma, HPLC
Format: in vitro ADME, C57BL/6 mice
Details: 50 μM, 37 °C
Method: as §3, §4

SMILES | concentration relative to initial concentration after 24 h in mouse plasma [%]
C[C@H]1O[C@@H](n2cc(F)c(=O)n(Cc3ccc([N+](=O)[O-])o3)c2=O)[C@H](O)[C@@H]1O [Compound 2c] | 88

Target: T1, NTR (Escherichia coli, UniProt P38489)
T1 construct: host or cells: Escherichia coli
Test: In vitro release evaluation: incubation with NTR and NADH, HPLC of derivative and released 5′-DFUR
Format: biochemical
Details: Escherichia coli; 50 µM compound, NTR 50 µg/mL, NADH 2 mM, PBS pH 7.4, 37 °C; read-out: half-life in the presence of NTR (converted)
Method: (§5) NTR levels are reportedly much higher in hypoxic tumors than in normal tissues. To investigate the mechanism of activation of the derivatives and the amount of 5′-DFUR released, we treated the target compounds with NTR extracted from Escherichia coli to determine whether they provided the desired active agent as expected. The test compounds (50 µM, 1% dimethyl sulfoxide [DMSO]) were dissolved in PBS buffer at pH 7.4 and incubated with NTR (50 µg/mL) and NADH (2 mM) at 37 °C, and the concentrations of the derivatives and 5′-DFUR during the bioreduction were detected by high-performance liquid chromatography (HPLC). The designed target compounds 1c–3c could be metabolized to form 5′-DFUR in the presence of NTR, while the nitro-free compounds 4c–6c could not be metabolized to form 5′-DFUR. […] The metabolic rate of compound 2c was the highest, with a half-life of 0.6 h. It was completely degraded after 4 h, and 69.6% of 5′-DFUR was released. […] During the experiment, other metabolites, such as hydroxylamine derivatives and amino derivatives generated by reducing the nitro group were also detected. […] Compounds 4c, 5c and 6c, without nitro groups, remained well-stabilized under NTR conditions, with concentrations > 90% after 12 h.
(§6) The target compounds NTR and NADH were dissolved in 10 mM PBS (pH 7.4; 1% DMSO). The final concentrations of the target compounds NTR and NADH in the mixtures were 50 μM, 50 μg/mL, and 2 mM, respectively. The mixture were incubated at 37 °C. The sample (100 μL) was collected and quenched by 100 µL of cold methanol. The mixture was vortexed for 5 min and centrifuged at 10,000× g for 10 min. The supernatant was transferred to a vial for HPLC analysis at 0.25, 0.5, 1, 2, 4, 8, and 12 h.

T1 sequence (P38489 whole entry): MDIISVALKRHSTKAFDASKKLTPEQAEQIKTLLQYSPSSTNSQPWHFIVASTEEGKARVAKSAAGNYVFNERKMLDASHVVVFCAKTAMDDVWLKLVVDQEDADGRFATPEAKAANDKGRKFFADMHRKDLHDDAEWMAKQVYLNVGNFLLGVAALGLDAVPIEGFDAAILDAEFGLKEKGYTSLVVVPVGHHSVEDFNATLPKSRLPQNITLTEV

SMILES | half-life at 50 µM [min]
C[C@H]1O[C@@H](n2cc(F)c(=O)n(Cc3ccc([N+](=O)[O-])o3)c2=O)[C@H](O)[C@@H]1O [Compound 2c] | 36

Target: T2, NTR extracted from Escherichia coli (Escherichia coli, UniProt P38489)
T2 construct: host or cells: Escherichia coli
Test: as above
Format: biochemical
Details: 50 µM compound, NTR 50 µg/mL, NADH 2 mM, PBS pH 7.4, 37 °C
Method: as §5, §6

T2 sequence (P38489 whole entry): as above

SMILES | time after which compound was completely degraded by NTR [h]
C[C@H]1O[C@@H](n2cc(F)c(=O)n(Cc3ccc([N+](=O)[O-])o3)c2=O)[C@H](O)[C@@H]1O [Compound 2c] | 4

Same assay, conditions: 50 µM compound, NTR 50 µg/mL, NADH 2 mM, PBS pH 7.4, 37 °C, at complete degradation

SMILES | 5′-DFUR released [%]
C[C@H]1O[C@@H](n2cc(F)c(=O)n(Cc3ccc([N+](=O)[O-])o3)c2=O)[C@H](O)[C@@H]1O [Compound 2c] | 69.6

Same assay, conditions: NTR 50 µg/mL, NADH 2 mM, PBS pH 7.4, 37 °C, 12 h

SMILES | concentration remaining under NTR conditions after 12 h [%]
C[C@H]1O[C@@H](n2cc(F)c(=O)n(Cc3cccs3)c2=O)[C@H](O)[C@@H]1O [Compound 6c] | > 90

Same assay, conditions: versus 1c and 3c, Figure 4d

SMILES | amount of 5′-DFUR released (AUC0–12h of relative amount), comparison in words
C[C@H]1O[C@@H](n2cc(F)c(=O)n(Cc3ccc([N+](=O)[O-])o3)c2=O)[C@H](O)[C@@H]1O [Compound 2c] | significantly higher
